The molecules below were run against T1, human GPR84 receptor (Homo sapiens, UniProt Q9NQS5) (assay: cAMP HTRF assay for identification of cellular GPR84 antagonists). Details: CHO-K1 cells stably expressing human GPR84; Forskolin plus agonist 6-OAU; cAMP HTRF readout; average or median values.
T1 construct: frozen aliquots prepared by acCELLerate; host or cells: CHO-K1
T1 sequence (Q9NQS5 whole entry): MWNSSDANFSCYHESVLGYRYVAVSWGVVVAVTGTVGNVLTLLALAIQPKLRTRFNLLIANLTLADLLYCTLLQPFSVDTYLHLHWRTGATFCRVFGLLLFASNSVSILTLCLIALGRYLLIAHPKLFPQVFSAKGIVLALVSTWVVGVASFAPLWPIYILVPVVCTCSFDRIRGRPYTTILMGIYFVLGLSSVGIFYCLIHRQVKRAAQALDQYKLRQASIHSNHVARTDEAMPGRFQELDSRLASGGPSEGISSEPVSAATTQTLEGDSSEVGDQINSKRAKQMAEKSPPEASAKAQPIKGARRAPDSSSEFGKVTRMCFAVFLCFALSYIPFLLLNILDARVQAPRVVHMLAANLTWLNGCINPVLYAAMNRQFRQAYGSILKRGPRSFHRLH
Assay type: cell-based
Source text: cAMP HTRF® Assay for Identification of Cellular GPR84 Antagonists
By using a Homogenous Time-Resolved Fluorescence (HTRF®) based assay (#62AM5PEJ, Cisbio, Condolet, France) the inhibition of the Gi-coupled GPR84 receptor can be detected. CHO-K1 cells stably expressing human GPR84 receptor (purchased from DiscoveRx, now Eurofins) were used and treated with Forskolin (F6886, Sigma, Germany) to stimulate membrane adenylyl cyclases and thereby unspecific cAMP formation. Activation of the Gi-coupled GPR84 by a natural or small molecule agonist (e.g. 6-n-octyl aminouracile, inhouse) results in inhibition of cellular cAMP formation which can be released again by antagonists to this receptor. Detection and quantification of cellular cAMP levels in this HTRF assay is achieved by interaction between a fluorescent cAMP tracer (cAMP-d2) and an Eu-cryptate labelled anti-cAMP antibody. Following excitation at 337 nm this pairing allows for the generation of a fluorescence resonance energy transfer (FRET) between the partners and results in FRET induced emissions at 665 nm and 620 nm, the latter representing background signal by Eu-cryptate labelled anti-cAMP antibody. Maximal signal is obtained in the absence of any cellular cAMP (no competition for the binding of the tracer to the antibody). Given the combination of the Gi coupling properties of GPR84 and the competitive nature of the detection system agonist treatment should result in an increase in the HTRF signal due to lowered cAMP levels. Any signal decrease in the presence of Forskolin, agonist and compound is indicative of antagonist mediated abrogation of GPR84 signalling.
For the assay, frozen aliquots of CHO-K1 cells expressing hGPR84 (prepared by acCELLerate, Hamburg, Germany) were thawed and a cell suspension (1.67E+06 cells/mL) in assay media (Ham's F12 Nutrient Mix, Thermo Fisher Scientific, Waltham, USA; 5% fetal calf serum, Biomol, Hamburg, Germany) containing cAMP-d2 (dilution 1:20, supplied with the kit #62AM5PEJ, Cisbio, Condolet, France) was prepared. After recovery of cells for 20 minutes at 37° C., 3 μL/well cell suspension including cAMP-d2 were added to a pre-dispensed assay plate (Greiner Bio-One, Kremsmuenster, Austria) containing 50 nl/well test compound in 100% DMSO or 100% DMSO as control. This was followed by a 30 minutes incubation step at room temperature. […] The reaction was stopped by addition of 3 μL/well lysis buffer containing cAMP Eu-Cryptate antibody (dilution 1:20) (both supplied with the kit #62AM5PEJ, Cisbio, Condolet, France). To enable complete lysis, plates were incubated for 60 minutes at room temperature before measurement in an HTRF reader, e.g. a PHERAstar (BMG Labtech, Ortenberg, Germany).
From the fluorescence emissions at 665 nm (FRET) and at 620 nm (background signal of Eu-cryptate) the ratio (emission at 665 nm divided by emission at 620 nm×10000) was calculated and the data were normalized (reaction without test compound, only 100% DMSO=0% inhibition; all other assay components except agonist=100% inhibition). For dose response testing on the same microtiter plate, compounds were tested at 11 different concentrations in the range of 20 μM to 0.07 nM (20 μM, 5.7 μM, 1.6 μM, 0.47 μM, 0.13 μM, 38 nM, 11 nM, 3.1 nM, 0.89 nM, 0.25 and 0.07 nM; dilution series prepared before the assay at the level of the 100-fold conc. stock solutions by serial 1:3.5 dilutions in 100% DMSO) in duplicate values for each concentration. IC50 values were calculated by 4-parameter fitting using a commercial software package (Genedata Screener, Basel, Switzerland).
Examples were tested in selected biological assays one or more times. […]
An IC50 of 630 nM was found for `O=C(NCCc1ccccn1)c1oc2ccc3cn(C[C@H]4COCCO4)nc3c2c1C(F)(F)F` [Example 27, 2-{[(2S)-1,4-dioxan-2-yl]methyl}-N-[2-(pyridin-2-yl)ethyl]-8-(trifluoromethyl)-2H-furo[2,3-g]indazole-7-carboxamide] in this work.
An IC50 of 32 nM was found for `Cc1cc2oc(C(=O)NC[C@@H]3COCCO3)c(C(F)(F)F)c2c2nn(C[C@H]3COCCO3)cc12` [Example 39, N-{[(2R)-1,4-dioxan-2-yl]methyl}-2-{[(2S)-1,4-dioxan-2-yl]methyl}-4-methyl-8-(trifluoromethyl)-2H-furo[2,3-g]indazole-7-carboxamide] in this work.
An IC50 of 18 nM was found for `Cc1cnc(CNC(=O)c2oc3ccc4cn(C[C@H]5COCCO5)nc4c3c2C(F)(F)F)cn1` [Example 20, 2-{[(2S)-1,4-dioxan-2-yl]methyl}-N-[(5-methylpyrazin-2-yl)methyl]-8-(trifluoromethyl)-2H-furo[2,3-g]indazole-7-carboxamide] in this work.
An IC50 of 13 nM was found for `CC1CCC(CNC(=O)c2oc3ccc4cn(C[C@H]5COCCO5)nc4c3c2C(F)(F)F)O1` (mixture of isomers) [Example 7, 2-{[(2S)-1,4-dioxan-2-yl]methyl}-N-{[(2RS,5RS)-5-methyltetrahydrofuran-2-yl]methyl}-8-(trifluoromethyl)-2H-furo[2,3-g]indazole-7-carboxamide] in this work.
An IC50 of 7 nM was found for `Cc1ccc(CNC(=O)c2oc3ccc4cn(C[C@H]5COCCO5)nc4c3c2C(F)(F)F)nc1` [Example 18, 2-{[(2S)-1,4-dioxan-2-yl]methyl}-N-[(5-methylpyridin-2-yl)methyl]-8-(trifluoromethyl)-2H-furo[2,3-g]indazole-7-carboxamide] in this work.
An IC50 of 400 nM was found for `COc1cccc(CNC(=O)c2oc3ccc4cn(C[C@H]5COCCO5)nc4c3c2C(F)(F)F)n1` [Example 24] in this work.
An IC50 of 530 nM was found for `O=C(NC[C@@H]1CCCO1)c1oc2ccc3cn(Cc4ccccn4)nc3c2c1CO` [Example 41, 8-(hydroxymethyl)-2-(pyridin-2-ylmethyl)-N-[(2S)-tetrahydrofuran-2-ylmethyl]-2H-furo[2,3-g]indazole-7-carboxamide] in this work.
An IC50 of 3580 nM was found for `O=C(NCCc1cccnc1)c1oc2ccc3cn(C[C@H]4COCCO4)nc3c2c1C(F)(F)F` [Example 28, 2-{[(2S)-1,4-dioxan-2-yl]methyl}-N-[2-(pyridin-3-yl)ethyl]-8-(trifluoromethyl)-2H-furo[2,3-g]indazole-7-carboxamide] in this work.
An IC50 of 11 nM was found for `O=C(NCC1CC(F)(F)CO1)c1oc2ccc3cn(C[C@H]4COCCO4)nc3c2c1C(F)(F)F` (mixture of isomers) [Example 6] in this work.
An IC50 of 5 nM was found for `Cc1ccc(Cn2cc3c(C)cc4oc(C(=O)NC[C@@H]5COCCO5)c(C(F)(F)F)c4c3n2)nc1` [Example 36, N-{[(2R)-1,4-dioxan-2-yl]methyl}-4-methyl-2-[(5-methylpyridin-2-yl)methyl]-8-(trifluoromethyl)-2H-furo[2,3-g]indazole-7-carboxamide] in this work.
An IC50 of 460 nM was found for `O=C(NCc1cccnn1)c1oc2ccc3cn(C[C@H]4COCCO4)nc3c2c1C(F)(F)F` [Example 17] in this work.
An IC50 of 1040 nM was found for `O=C(NCCC1CC1)c1oc2ccc3cn(C[C@H]4COCCO4)nc3c2c1C(F)(F)F` [Example 8] in this work.
An IC50 of 18 nM was found for `Cc1ccc(Cn2cc3c(C)cc4oc(C(=O)NCc5ncco5)c(C(F)(F)F)c4c3n2)nc1` [Example 37, 4-methyl-2-[(5-methylpyridin-2-yl)methyl]-N-[(1,3-oxazol-2-yl)methyl]-8-(trifluoromethyl)-2H-furo[2,3-g]indazole-7-carboxamide] in this work.
An IC50 of 54 nM was found for `CCc1cc2oc(C(=O)NC[C@@H]3COCCO3)c(C)c2c2nn(C[C@H]3COCCO3)cc12` [Example 44, N-{[(2R)-1,4-dioxan-2-yl]methyl}-2-{[(2S)-1,4-dioxan-2-yl]methyl}-4-ethyl-8-methyl-2H-furo[2,3-g]indazole-7-carboxamide] in this work.
An IC50 of 14000 nM was found for `Cc1cn(CCNC(=O)c2oc3ccc4cn(C[C@H]5COCCO5)nc4c3c2C(F)(F)F)nn1` [Example 26] in this work.
An IC50 of 880 nM was found for `O=C(NC[C@@H]1CCCO1)c1cc2c(ccc3cn(Cc4ccccn4)nc32)o1` [Example 42, 2-(pyridin-2-ylmethyl)-N-[(2S)-tetrahydrofuran-2-ylmethyl]-2H-furo[2,3-g]indazole-7-carboxamide] in this work.
An IC50 of 16 nM was found for `Cc1c(C(=O)NC[C@@H]2CCCO2)oc2ccc3cn(Cc4ccccn4)nc3c12` [Example 40, 8-methyl-2-(pyridin-2-ylmethyl)-N-[(2S)-tetrahydrofuran-2-ylmethyl]-2H-furo[2,3-g]indazole-7-carboxamide] in this work.
An IC50 of 49 nM was found for `O=C(NCc1cnccn1)c1oc2ccc3cn(C[C@H]4COCCO4)nc3c2c1C(F)(F)F` [Example 15] in this work.
An IC50 of 13 nM was found for `Cc1cc2oc(C(=O)NC[C@@H]3CCCO3)c(C(F)(F)F)c2c2nn(Cc3ccncc3)cc12` [Example 31] in this work.
An IC50 of 150 nM was found for `Cc1cc2oc(C(=O)NCc3ccn(C)n3)c(C(F)(F)F)c2c2nn(Cc3ccccn3)cc12` [Example 34] in this work.
An IC50 of 16 nM was found for `O=C(NC[C@@H]1COCCO1)c1oc2ccc3cn(C[C@H]4COCCO4)nc3c2c1C(F)(F)F` [Example 1, N-{[(2R)-1,4-dioxan-2-yl]methyl}-2-{[(2S)-1,4-dioxan-2-yl]methyl}-8-(trifluoromethyl)-2H-furo[2,3-g]indazole-7-carboxamide] in this work.
An IC50 of 350 nM was found for `Cc1ccc(CNC(=O)c2oc3ccc4cn(C[C@H]5COCCO5)nc4c3c2C(F)(F)F)nn1` [Example 21] in this work.
An IC50 of 7 nM was found for `Cc1ccc(Cn2cc3ccc4oc(C(=O)NC[C@@H]5COCCO5)c(C(F)(F)F)c4c3n2)cn1` [Example 3, N-{[(2R)-1,4-dioxan-2-yl]methyl}-2-[(6-methylpyridin-3-yl)methyl]-8-(trifluoromethyl)-2H-furo[2,3-g]indazole-7-carboxamide] in this work.
An IC50 of 18 nM was found for `O=C(NCc1nccs1)c1oc2ccc3cn(C[C@H]4COCCO4)nc3c2c1C(F)(F)F` [Example 12] in this work.
An IC50 of 26 nM was found for `Cc1cc2oc(C(=O)NC[C@@H]3COCCO3)c(C(F)(F)F)c2c2nn(Cc3ccccn3)cc12` [Example 30] in this work.
An IC50 of 13000 nM was found for `O=C(NCCn1ccnc1)c1oc2ccc3cn(C[C@H]4COCCO4)nc3c2c1C(F)(F)F` [Example 25] in this work.
An IC50 of 4 nM was found for `Cc1ccc(Cn2cc3c(C)cc4oc(C(=O)NC[C@@H]5CCCO5)c(C(F)(F)F)c4c3n2)nc1` [Example 35] in this work.
An IC50 of 4930 nM was found for `O=C(NC[C@@H]1CCCO1)c1cc2c(cc(Br)c3cn(Cc4ccccn4)nc32)o1` [Example 43, 4-bromo-2-(pyridin-2-ylmethyl)-N-[(2S)-tetrahydrofuran-2-ylmethyl]-2H-furo[2,3-g]indazole-7-carboxamide] in this work.
An IC50 of 250 nM was found for `N#Cc1ccnc(CNC(=O)c2oc3ccc4cn(C[C@H]5COCCO5)nc4c3c2C(F)(F)F)c1` [Example 23] in this work.
An IC50 of 100 nM was found for `Cc1cc2oc(C(=O)NCc3ncco3)c(C(F)(F)F)c2c2nn(Cc3ccccn3)cc12` [Example 33] in this work.
An IC50 of 120 nM was found for `O=C(NCc1ccncn1)c1oc2ccc3cn(C[C@H]4COCCO4)nc3c2c1C(F)(F)F` [Example 16] in this work.
An IC50 of 490 nM was found for `O=C(NCc1cncs1)c1oc2ccc3cn(C[C@H]4COCCO4)nc3c2c1C(F)(F)F` [Example 13] in this work.
An IC50 of 9 nM was found for `Cc1ccc(Cn2cc3ccc4oc(C(=O)NC[C@@H]5CCCO5)c(C(F)(F)F)c4c3n2)cn1` [Example 4] in this work.
An IC50 of 16 nM was found for `Cc1cc2oc(C(=O)NC[C@@H]3CCCO3)c(C(F)(F)F)c2c2nn(Cc3ccccn3)cc12` [Example 29] in this work.
An IC50 of 75 nM was found for `Cn1cnc(CNC(=O)c2oc3ccc4cn(C[C@H]5COCCO5)nc4c3c2C(F)(F)F)c1` [Example 11] in this work.
An IC50 of 21 nM was found for `Cc1cc2oc(C(=O)NC[C@@H]3CCCO3)c(C(F)(F)F)c2c2nn(C[C@H]3COCCO3)cc12` [Example 38] in this work.
An IC50 of 100 nM was found for `O=C(NCc1cocn1)c1oc2ccc3cn(C[C@H]4COCCO4)nc3c2c1C(F)(F)F` [Example 10] in this work.
